Measured values: ChEMBL document CHEMBL5053500, “Nitric Oxide Induction in Peritoneal Macrophages by a 1,2,3-Triazole Derivative Improves Its Efficacy upon Leishmania amazonensis In Vitro Infection” (J Med Chem, 2021)
Calls of active or inactive are those of the source. The rule behind the calls is not given here.

Key:
[1] = Selectivity index, ratio of CC50 for cytotoxicity against BALB/c mouse peritoneal macrophages to IC50 for antileishmanial activity against Leishmania amazonensis (MHOM/BR/76/MA-76) promastigotes; assay type: toxicity; settings: read-out: Ratio CC50/IC50
[2] = tested on: Leishmania amazonensis; test: Antileishmanial activity against Leishmania amazonensis (MHOM/BR/76/MA-76) promastigotes assessed as reduction in parasite growth incubated for 24 hrs by MTT assay; assay type: functional, organism-based; settings: MHOM/BR/76/MA-76, 24 h
[3] = Cytotoxicity against human CCD-1072Sk cells assessed as reduction in cell viability at <400 uM measured after 24 hrs by MTT assay; assay type: cell-based
[4] = Cytotoxicity against BALB/c mouse peritoneal macrophages assessed as reduction in cell viability incubated for 24 hrs by MTT assay; assay type: cell-based, Peritoneal macrophage
[5] = Selectivity index, ratio of CC50 for cytotoxicity against BALB/c mouse peritoneal macrophage to IC50 for antileishmanial activity against Leishmania amazonensis (MHOM/BR/76/MA-76) intracellular amastigotes infected in BALB/c mouse peritoneal macrophages; assay type: toxicity, cell-based; settings: read-out: Ratio CC50/IC50
[6] = tested on: Leishmania amazonensis; test: (§1) Antileishmanial activity against Leishmania amazonensis (MHOM/BR/76/MA-76) intracellular amastigotes infected in BALB/c mouse peritoneal macrophages assessed as decrease in number of amastigotes per infected cells at up to 40 uM incubated for 24 hrs by Giemsa's azur-eosin-methyle blue staining based light microscopy analysis; assay type: functional, organism-based; settings: Peritoneal macrophage
[7] = tested on: Leishmania amazonensis; test: as §1, with “upward shift” for “decrease”, “concentration response curves” for “number”, “parasite viability” for “amastigotes per infected cells at up to 40 uM”; assay type: functional, organism-based; settings: Peritoneal macrophage
[8] = tested on: Leishmania amazonensis; test: Induction of morphological changes in Leishmania amazonensis (MHOM/BR/76/MA-76) promastigotes assessed as formation of membrane profiles near the flagellar pocket at IC50 incubated for 24 hrs by transmission electron microscopy analysis; assay type: functional, organism-based
[9] = tested on: Leishmania amazonensis; test: Induction of morphological changes in Leishmania amazonensis (MHOM/BR/76/MA-76) promastigotes assessed as formation of small vesicles surrounded by a membrane in cytoplasm at IC50 incubated for 24 hrs by transmission electron microscopy analysis; assay type: functional, organism-based
[10] = tested on: Leishmania amazonensis; test: Antileishmanial activity against Leishmania amazonensis (MHOM/BR/76/MA-76) intracellular amastigotes infected in BALB/c mouse peritoneal macrophages assessed as reduction in parasite growth incubated for 24 hrs by Giemsa's azur-eosin-methyle blue staining based light microscopy analysis; assay type: functional, organism-based; settings: MHOM/BR/76/MA-76, Peritoneal macrophage
[11] = tested on: Leishmania amazonensis; test: Antileishmanial activity against Leishmania amazonensis (MHOM/BR/76/MA-76) intracellular amastigotes infected in BALB/c mouse peritoneal macrophages assessed as low amastigote mean at 40 uM incubated for 24 hrs by Giemsa's azur-eosin-methyle blue staining based light microscopy analysis; assay type: functional, organism-based; settings: Peritoneal macrophage
[12] = tested on: Leishmania amazonensis; test: Antileishmanial activity against Leishmania amazonensis (MHOM/BR/76/MA-76) promastigotes assessed as upward shift in concentration response curves of parasite viability incubated for 24 hrs by MTT assay; assay type: functional, organism-based
[13] = tested on: Leishmania amazonensis; test: Induction of morphological changes in Leishmania amazonensis (MHOM/BR/76/MA-76) promastigotes assessed as lipid inclusions at IC50 incubated for 24 hrs by transmission electron microscopy analysis; assay type: functional, organism-based
[14] = tested on: Leishmania amazonensis; test: as §1, with “per 100” for “per infected”, “at” for “at up to”; assay type: functional, organism-based; settings: Peritoneal macrophage
[15] = tested on: Leishmania amazonensis; test: as §1, with “20” for “up”; assay type: functional, organism-based; settings: Peritoneal macrophage, dose 20-40 µM
[16] = tested on: Leishmania amazonensis; test: as §1, with “per 100” for “per infected”, “at 10” for “at up”; assay type: functional, organism-based; settings: Peritoneal macrophage, dose 10-40 µM
[17] = Cytotoxicity against human CCD-1072Sk cells assessed as reduction in cell viability measured after 24 hrs by MTT assay; assay type: cell-based
[18] = tested on: Leishmania amazonensis; test: Antileishmanial activity against Leishmania amazonensis (MHOM/BR/76/MA-76) intracellular amastigotes infected in BALB/c mouse peritoneal macrophages assessed as low amastigote mean at 5 to 40 uM incubated for 24 hrs by Giemsa's azur-eosin-methyle blue staining based light microscopy analysis; assay type: functional, organism-based; settings: Peritoneal macrophage, dose 5-40 µM

Row | Compound | selectivity ratio [1] | IC50 [2] [µM] | Activity [3] | CC50 at 24 h [4] [µM] | selectivity ratio [5] | Activity [6] | Activity [7] | Activity [8] | Activity [9] | IC50 [10] [µM] | Activity [11] | Activity [12] | Activity [13] | Activity [14] | Activity [15] | Activity [16] | CC50 at 24 h [17] [µM] | Activity [18]
1 | CC(=O)c1ccc(-n2cc(C(O)c3ccccc3-c3ccccc3)nn2)cc1 (stereo not given) | 4.12 | 56.6 | Non-Toxic | 234 | – | – | – | – | – | – | – | – | – | – | – | – | – | –
2 | O=c1ccc2cc(-n3cc(C(O)c4ccccc4Br)nn3)ccc2o1 (stereo not given) | 4.27 | 81.4 | Non-Toxic | 348 | – | – | – | – | – | – | – | – | – | – | – | – | – | –
3 | OC(c1cn(-c2ccc(Br)cc2)nn1)c1ccccc1Br (stereo not given) | < 1.56 | > 200 | Non-Toxic | 313 | – | – | – | – | – | – | – | – | – | – | – | – | – | –
4 | COC(=O)c1ccc(-n2cc(C(O)c3ccccc3Br)nn2)cc1 (stereo not given) | 10.7 | 27.8 | Non-Toxic | 297 | 8.03 | inactive | Active | Active | Active | 37 | Active | Active | Active | Active | – | – | – | –
5 | OC(c1ccc(Br)cc1)c1cn(-c2ccc(F)cc2)nn1 (stereo not given) | 4 | 45.6 | Non-Toxic | 182 | – | – | – | – | – | – | – | – | – | – | – | – | – | –
6 | CCCCCCCCCCCCCCCCOP(=O)([O-])OCC[N+](C)(C)C [MILTEFOSINE] | 21.1 | 8.02 | – | 169 | 33.2 | – | Active | – | – | 5.11 | – | Active | – | – | Active | Active | 191 | Active
7 | O=[N+]([O-])c1ccccc1C(O)c1cn(-c2ccc(Br)cc2)nn1 (stereo not given) | > 2.1 | 190 | Non-Toxic | > 400 | – | – | – | – | – | – | – | – | – | – | – | – | – | –
